According to the NIST ThermoML archive (doi:10.1016/j.jct.2012.08.019):

How the values were obtained:
[1] = 323.2 K, Liquid, Vibrating tube method
[2] = xn = mol fraction of the nth substance listed; details: Liquid; for mass density: Vibrating tube method; for viscosity: Moving piston method

CCCCCCCCCC [decane]
[1]
Details	mass density [kg/m3]
100 kPa	707
1000 kPa	707.9
2000 kPa	708.8
3000 kPa	709.7
4000 kPa	710.6
5000 kPa	711.5
6000 kPa	712.4
7000 kPa	713.3
8000 kPa	714.1
9000 kPa	715
10000 kPa	715.9

CCCCCCCCCC [decane] + CCCCCCCCCCCCCC
[2], 323.2 K, x1 = 1
Details	mass density [kg/m3]
100 kPa	707
1000 kPa	707.9
2000 kPa	708.8
3000 kPa	709.7
4000 kPa	710.6
5000 kPa	711.5
6000 kPa	712.4
7000 kPa	713.3
8000 kPa	714.1
9000 kPa	715
10000 kPa	715.9

CCCCCCCCCC [decane] + O=C=O
[2]
Details	mass density, 323.3 K [kg/m3]	viscosity, 323.2 K [mPa·s]
1020 kPa, x2 = 0.094	711	0.56
2080 kPa, x2 = 0.19	716	0.46
2970 kPa, x2 = 0.263	720	0.42
3940 kPa, x2 = 0.353	724	0.38
4910 kPa, x2 = 0.429	729	0.33
5960 kPa, x2 = 0.513	735	0.28

CCCCCCCCCCCCCC [tetradecane]
[1]
Details	mass density [kg/m3]
100 kPa	741.3
1000 kPa	742.1
2000 kPa	742.9
3000 kPa	743.7
4000 kPa	744.4
5000 kPa	745.2
6000 kPa	746
7000 kPa	746.7
8000 kPa	747.5
9000 kPa	748.2
10000 kPa	749

CCCCCCCCCCCCCC [tetradecane] + CCCCCCCCCC
mass density [kg/m3], [2], 323.2 K
Details	x2 = 0	x2 = 0.25	x2 = 0.5	x2 = 0.75
100 kPa	741.3	734.3	726.5	717.2
1000 kPa	742.1	735.1	727.4	718.1
2000 kPa	742.9	735.9	728.2	719
3000 kPa	743.7	736.7	729.1	719.8
4000 kPa	744.4	737.5	729.8	720.7
5000 kPa	745.2	738.3	730.7	721.6
6000 kPa	746	739.1	731.5	722.5
7000 kPa	746.7	739.9	732.4	723.2
8000 kPa	747.5	740.7	733.2	724
9000 kPa	748.2	741.5	734	724.9
10000 kPa	749	742.2	734.8	725.8

CCCCCCCCCCCCCC [tetradecane] + O=C=O
[2]
Details	mass density, 323.3 K [kg/m3]	viscosity, 323.2 K [mPa·s]
980 kPa, x2 = 0.097	744	1.18
2060 kPa, x2 = 0.196	748	1.08
3000 kPa, x2 = 0.279	751	0.96
4030 kPa, x2 = 0.358	755	0.79
4960 kPa, x2 = 0.429	758	0.67
6000 kPa, x2 = 0.496	762	0.56
